Numbers after ± are expanded uncertainties.
Experiment: activity coefficient (dimensionless); of the first substance listed, at infinite dilution; xn = mol fraction of the nth substance listed
Conditions: Liquid, Chromatography, x1 = 0

SMILES | activity coefficient (303.15 K) | activity coefficient (313.15 K) | activity coefficient (323.15 K) | activity coefficient (333.15 K) | activity coefficient (343.15 K) | activity coefficient (353.15 K) | activity coefficient (363.15 K)
CCOC(C)=O [ethyl acetate] + CCC[n+]1ccn(C)c1C.F[B-](F)(F)F | 8.86 ± 0.77 | 8.84 ± 0.76 | 8.79 ± 0.76 | 8.75 ± 0.76 | 8.71 ± 0.75 | 8.66 ± 0.75 | 8.63 ± 0.74
CCC(C)O (configuration not stated) [butan-2-ol] + CCC[n+]1ccn(C)c1C.F[B-](F)(F)F | 4.28 ± 0.37 | 3.99 ± 0.34 | 3.67 ± 0.32 | 3.3 ± 0.28 | 2.87 ± 0.25 | 2.5 ± 0.22 | 2.13 ± 0.18
CCCCO [butan-1-ol] + CCC[n+]1ccn(C)c1C.F[B-](F)(F)F | 5.05 ± 0.44 | 4.67 ± 0.4 | 4.2 ± 0.36 | 3.73 ± 0.32 | 3.2 ± 0.28 | 2.67 ± 0.23 | 2.27 ± 0.2
CCO [ethanol] + CCC[n+]1ccn(C)c1C.F[B-](F)(F)F | 1.86 ± 0.16 | 1.68 ± 0.14 | 1.6 ± 0.14 | 1.51 ± 0.13 | 1.44 ± 0.12 | 1.35 ± 0.11 | 1.18 ± 0.098
CC(C)CCO [3-methylbutan-1-ol] + CCC[n+]1ccn(C)c1C.F[B-](F)(F)F | – | 4.91 ± 0.42 | 4.46 ± 0.39 | 4.18 ± 0.36 | 3.78 ± 0.33 | 3.42 ± 0.29 | 3.02 ± 0.26
ClCCl [dichloromethane] + CCC[n+]1ccn(C)c1C.F[B-](F)(F)F | 1.67 ± 0.14 | 1.74 ± 0.15 | 1.84 ± 0.16 | 1.93 ± 0.17 | 2.01 ± 0.17 | 2.09 ± 0.18 | 2.17 ± 0.19
CC#N [acetonitrile] + CCC[n+]1ccn(C)c1C.F[B-](F)(F)F | 1.4 ± 0.12 | 1.39 ± 0.12 | 1.38 ± 0.12 | 1.37 ± 0.12 | 1.36 ± 0.11 | 1.35 ± 0.11 | 1.34 ± 0.11
C1COCCO1 [1,4-dioxane] + CCC[n+]1ccn(C)c1C.F[B-](F)(F)F | 2.96 ± 0.26 | 3.08 ± 0.27 | 3.14 ± 0.27 | 3.17 ± 0.27 | 3.24 ± 0.28 | 3.29 ± 0.28 | 3.35 ± 0.29
CC(C)=O [acetone] + CCC[n+]1ccn(C)c1C.F[B-](F)(F)F | 2.47 ± 0.21 | 2.53 ± 0.22 | 2.55 ± 0.22 | 2.61 ± 0.23 | 2.66 ± 0.23 | 2.71 ± 0.23 | 2.74 ± 0.24
ClC(Cl)(Cl)Cl [tetrachloromethane] + CCC[n+]1ccn(C)c1C.F[B-](F)(F)F | 8.11 ± 0.7 | 8.63 ± 0.74 | 9.13 ± 0.79 | 9.58 ± 0.83 | 10 ± 0.86 | 10.4 ± 0.9 | 10.7 ± 0.92
CC(C)CO [2-methyl-1-propanol] + CCC[n+]1ccn(C)c1C.F[B-](F)(F)F | 4.17 ± 0.36 | 3.87 ± 0.33 | 3.47 ± 0.3 | 3.07 ± 0.26 | 2.62 ± 0.23 | 2.38 ± 0.2 | 2.03 ± 0.17

Next, values leading:

activity coefficient (303.15 K) | activity coefficient (313.15 K) | activity coefficient (323.15 K) | activity coefficient (333.15 K) | activity coefficient (343.15 K) | activity coefficient (353.15 K) | activity coefficient (363.15 K) | SMILES
6.03 ± 0.52 | 5.98 ± 0.52 | 5.95 ± 0.51 | 5.92 ± 0.51 | 5.88 ± 0.51 | 5.82 ± 0.5 | 5.78 ± 0.5 | C1CCOC1 [tetrahydrofuran] + CCC[n+]1ccn(C)c1C.F[B-](F)(F)F
– | 6.2 ± 0.54 | 5.31 ± 0.46 | 4.65 ± 0.4 | 4.05 ± 0.35 | 3.68 ± 0.32 | 3.12 ± 0.27 | CCCCCO [pentan-1-ol] + CCC[n+]1ccn(C)c1C.F[B-](F)(F)F
3.26 ± 0.28 | 3.01 ± 0.26 | 2.81 ± 0.24 | 2.59 ± 0.22 | 2.37 ± 0.2 | 2.19 ± 0.19 | 1.88 ± 0.16 | CCCO [propan-1-ol] + CCC[n+]1ccn(C)c1C.F[B-](F)(F)F
0.898 ± 0.074 | 0.869 ± 0.072 | 0.823 ± 0.069 | 0.777 ± 0.065 | 0.713 ± 0.061 | 0.684 ± 0.059 | 0.642 ± 0.056 | CO [methanol] + CCC[n+]1ccn(C)c1C.F[B-](F)(F)F
1.14 ± 0.094 | 1.29 ± 0.11 | 1.4 ± 0.12 | 1.52 ± 0.13 | 1.65 ± 0.14 | 1.78 ± 0.15 | 1.91 ± 0.16 | ClC(Cl)Cl [trichloromethane] + CCC[n+]1ccn(C)c1C.F[B-](F)(F)F
2.62 ± 0.23 | 2.53 ± 0.22 | 2.45 ± 0.21 | 2.33 ± 0.2 | 2.21 ± 0.19 | 2.04 ± 0.18 | 1.86 ± 0.16 | CC(C)O [propan-2-ol] + CCC[n+]1ccn(C)c1C.F[B-](F)(F)F

Reference: the NIST ThermoML archive (doi:10.1021/je700640r)
